Experimental data reported in patent US11780851B2, “LRRK2 inhibitors” (H. Lundbeck A/S, priority 2021, dated 2023).
Read-outs that look alike come from different tables or passages of the source.

Tests used:
[1] = target: T1, LRRK2 WT (Homo sapiens, UniProt Q5S007); assay: LRRK2 wild-type kinase activity assay (LanthaScreen TR-FRET); type: biochemical; details: 1 nM LRRK2 WT, 1.3 mM ATP, 3.5 h at 30° C.; n≥2 tests
T1 construct: comprises residue 970 to 2527 of the full length human wild-type LRRK2 kinase; purchased Invitrogen (Life Technologies Corporation)
T1 sequence (Q5S007 970-2527): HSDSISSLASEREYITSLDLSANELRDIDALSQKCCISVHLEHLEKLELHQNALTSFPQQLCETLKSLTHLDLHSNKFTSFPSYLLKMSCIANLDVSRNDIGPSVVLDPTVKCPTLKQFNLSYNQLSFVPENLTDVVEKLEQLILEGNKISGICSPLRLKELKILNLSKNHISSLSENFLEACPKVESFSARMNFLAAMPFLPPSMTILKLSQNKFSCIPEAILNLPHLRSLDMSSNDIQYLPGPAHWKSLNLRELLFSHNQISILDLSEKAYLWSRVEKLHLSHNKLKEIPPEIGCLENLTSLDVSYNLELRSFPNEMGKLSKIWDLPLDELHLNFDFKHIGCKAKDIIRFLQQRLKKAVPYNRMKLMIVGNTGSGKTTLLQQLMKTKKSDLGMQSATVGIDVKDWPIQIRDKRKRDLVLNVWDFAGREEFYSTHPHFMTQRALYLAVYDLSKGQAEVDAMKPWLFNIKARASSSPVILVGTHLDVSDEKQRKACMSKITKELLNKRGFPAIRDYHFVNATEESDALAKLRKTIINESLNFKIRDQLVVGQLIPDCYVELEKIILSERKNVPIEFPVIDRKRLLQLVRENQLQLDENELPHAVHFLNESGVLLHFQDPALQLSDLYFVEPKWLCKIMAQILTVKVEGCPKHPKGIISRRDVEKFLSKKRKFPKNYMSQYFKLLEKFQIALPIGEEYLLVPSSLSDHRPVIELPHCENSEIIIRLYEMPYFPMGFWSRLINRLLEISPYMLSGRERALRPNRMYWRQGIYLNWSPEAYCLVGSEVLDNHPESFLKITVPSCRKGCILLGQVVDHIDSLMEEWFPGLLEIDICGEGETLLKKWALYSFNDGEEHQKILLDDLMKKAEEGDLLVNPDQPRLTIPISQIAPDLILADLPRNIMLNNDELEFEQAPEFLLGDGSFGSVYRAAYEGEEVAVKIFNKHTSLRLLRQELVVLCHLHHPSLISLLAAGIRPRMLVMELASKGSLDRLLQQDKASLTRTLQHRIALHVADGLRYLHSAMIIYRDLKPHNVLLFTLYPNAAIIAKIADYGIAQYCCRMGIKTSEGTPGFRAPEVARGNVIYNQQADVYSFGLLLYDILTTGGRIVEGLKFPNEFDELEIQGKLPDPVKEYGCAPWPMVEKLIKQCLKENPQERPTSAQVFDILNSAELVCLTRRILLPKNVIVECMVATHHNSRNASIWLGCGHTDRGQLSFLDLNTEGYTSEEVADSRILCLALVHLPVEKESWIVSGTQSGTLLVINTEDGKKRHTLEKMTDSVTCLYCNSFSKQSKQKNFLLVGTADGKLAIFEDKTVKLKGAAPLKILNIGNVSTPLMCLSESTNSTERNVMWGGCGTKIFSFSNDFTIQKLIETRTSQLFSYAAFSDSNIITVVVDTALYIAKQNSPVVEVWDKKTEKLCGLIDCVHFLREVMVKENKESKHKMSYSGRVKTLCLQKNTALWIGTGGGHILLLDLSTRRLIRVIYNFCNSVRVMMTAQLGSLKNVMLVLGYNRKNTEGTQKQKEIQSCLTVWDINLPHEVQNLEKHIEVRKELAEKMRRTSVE
Protocol: (§1) LRRK2 kinase activity was measured using a LanthaScreen kinase activity assay available from Invitrogen (Life Technologies Corporation). The assay is a homogeneous time resolved-fluorescence resonance energy transfer (TR-FRET) assay that measures phosphorylation of a fluorescein-labelled peptide substrate Fluorescein-ERM LRRKtide obtainable from Life Technologies Corporation as a result of LRRK2 kinase activity. The phosphorylated peptide is recognized by a terbium-labelled phospho-specific anti-LRRKtide antibody (pLRRKtide antibody), obtainable from Life Technologies Corporation and, subsequently, the phosphorylated LRRKtide can be quantified by the extent of TR-FRET between the terbium donor and fluorescein acceptor. The LRRK2 kinase was obtained from Invitrogen (Life Technologies Corporation) and comprises residue 970 to 2527 of the full length human wild-type LRRK2 kinase, or a similar sequence with the G2019S mutation. As discussed above, this mutation increases the kinase activity relative to the wild type. The kinase reactions were performed in a 20 μL volume in 384-well plates. […] The mixture was further incubated for 30 minutes at RT. […] The measurement was repeated 30 times for fluorescein and 30 times for terbium emission with a 1000 μs time window between repeats. TR-FRET measurements were performed on a Biotek Synergy plate. The TR-FRET signal was calculated as the emission-ratio at 520 nm over 495 nm. The TR-FRET ratio readout for test compounds was normalized to 0% inhibition corresponding to TR-FRET ratio measured in control wells with no inhibition of the kinase activity and 100% inhibition corresponding to TR-FRET ratio measured in control wells with inhibitor. […] C is the IC50 value and D is the Hill slope coefficient. IC50 estimates were obtained from independent experiment and the logarithmic average was calculated.

[2] = target: T2, LRRK2 G2019S (Homo sapiens, UniProt Q5S007, G2019S); assay: LRRK2 G2019S kinase activity assay (LanthaScreen TR-FRET); type: biochemical; details: 250 pM LRRK2 G2019S, 1.3 mM ATP, 3 h at 30° C.; n≥2 tests
T2 construct: purchased Invitrogen (Life Technologies Corporation)
T2 sequence (Q5S007 970-2527 G2019S): as the sequence (Q5S007 970-2527) above, with G1050S counted along it
Protocol: as §1

[3] = Free fraction in plasma (equilibrium dialysis); type: in vitro ADME, male Sprague-Dawley rat; details: rat plasma, 1 μM, 5 h at 37° C.
Protocol: The free fractions in male Sprague-Dawley rat or female Gottingen minipig plasma (fuplasma) and rat brain homogenate (fubrain) were determined by equilibrium dialysis using 96-well HTD-dialysis plates with dialysis membranes (molecular weight cut off 12-14 KDa). One side of the HTD-dialysis plate was loaded with matrix (plasma or brain homogenate) and the other side with buffer (100 mM sodium phosphate buffer, pH 7.4). Test compounds were dissolved in DMSO then spiked (5 μL of 0.2 mM) into blank (995 μL) plasma or diluted brain homogenate (1:4 ratio in phosphate buffer) giving a final nominal concentration 1 μM (≤0.5% DMSO). The matrices were loaded into respective chambers and equilibrated against phosphate buffer for 5 h at 37° C. (in a humidified air incubator with 5% CO2 with shaking). Samples from both chambers (buffer and plasma or brain homogenate) were aliquoted to fresh 96-well polypropylene plates then matrix matched using an equal volume of opposite blank matrix before extraction with cold solvent (3 volumes acetonitrile) containing an appropriate bioanalytical internal standard. After centrifugation (20 min, 3200 g, 4° C.) the supernatants were diluted with appropriate volumes of water and compound concentrations were quantified by LC/MS-MS against matrix matched calibration standards. The fuplasma and fubrain were calculated as a percent free according to equation 4 below.
Where [F] is the analyte concentration on the buffer (receiver) side of the membrane; [T] is the analyte concentration on the plasma or brain (donor) side of the membrane; [TO] is the analyte concentration in the plasma or brain sample at time zero; D is matrix dilution factor which is determined as 4 for brain matrix and 1 for plasma matrix in these assays.

[4] = Rat B/P (brain disposition); type: in vivo, male Sprague-Dawley rats; details: male, Sprague-Dawley; for concentration at 0.5 h / Kp uu at 0.5 h / Kp at 0.5 h: time point 0.5 h; for concentration at 0.5 h / Kp at 0.5 h / concentration at 1 h / Kp at 1 h: mean ± stdev; for Kp uu at 0.5 h / Kp at 0.5 h / Kp uu at 1 h / Kp at 1 h: brain/plasma; for Kp uu at 0.5 h / Kp uu at 1 h: fubrain from brain homogenate; for Kp at 0.5 h / Kp at 1 h: n = 3; for concentration at 1 h / Kp uu at 1 h / Kp at 1 h: time point 1.0 h
Protocol: Brain disposition was evaluated for each compound in male Sprague-Dawley rats (n=3, standard body weight). […] Isolated plasma and brain homogenates were extracted by standard protein precipitation in acetonitrile, containing internal standard, followed by LC-MS/MS analysis using an optimized analytical method. Concentrations of test compound in plasma and brain were quantified against matrix matched calibration standards. The total plasma and brain concentration data are presented in Table 7 alongside the calculated brain Kp (total brain concentration:total plasma concentration ratio).

[5] = brain, oral gavage 5 mg/kg, n = 3, read-out: Total brain concentration
[6] = plasma, oral gavage 5 mg/kg, n = 3, read-out: Total plasma concentration
[7] = brain, oral gavage 10 mg/kg, n = 3, read-out: Total brain concentration
[8] = po, 10 mg/kg, oral gavage 10 mg/kg
[9] = plasma, oral gavage 10 mg/kg, n = 3, read-out: Total plasma concentration

| Structure (SMILES) | IC50 [1] [nM] | IC50 [2] [nM] | fuplasma (% free) [3] [% free] | concentration at 0.5 h [4, 5] [ng/g] | Kp uu at 0.5 h ([4]; oral gavage 5 mg/kg) | Kp at 0.5 h ([4]; oral gavage 5 mg/kg) | concentration at 0.5 h [4, 6] [ng/mL] | concentration at 1 h [4, 5] [ng/g] | Kp uu at 1 h ([4]; oral gavage 5 mg/kg) | Kp at 1 h ([4]; oral gavage 5 mg/kg) | concentration at 1 h [4, 6] [ng/mL] | concentration at 1 h [4, 7] [ng/g] | Kp at 1 h ([4]; oral gavage 10 mg/kg) | Kp uu at 1 h [4, 8] | concentration at 1 h [4, 9] [ng/mL] | Kp uu at 1 h ([4]; oral gavage 10 mg/kg) |
| --- | --- | --- | --- | --- | --- | --- | --- | --- | --- | --- | --- | --- | --- | --- | --- | --- |
| Cc1c2c(nn1[C@@H]1CC1(F)F)OCCCn1nc(Cl)c3cnc(nc31)N2 (single isomer, unassigned) [Example 40, (+)-(R) or (S)-8-Chloro-2-(2,2-difluorocyclopropyl)-3-methyl-2,4,12,13-tetrahydro-11H-5,7-(azenometheno)dipyrazolo[3,4-b:5′,1′-g][1]oxa[4,6,8]triazacycloundecine] | 28 | 12 | 12.7 | 138 ± 12 | 0.72 ± 0.08 | 1.93 ± 0.22 | 72 ± 8 | – | – | – | – | – | – | – | – | – |
| Cc1c2c(nn1[C@H]1CCOC[C@]1(C)F)OCCCn1nc(Cl)c3cnc(nc31)N2 (single isomer, unassigned) [Example 47, (+)-8-Chloro-2-((3R,4S) or (3S,4R)-3-Fluoro-3-methyltetrahydro-2H-pyran-4-yl)-3-methyl-2,4,12,13-tetrahydro-11H-5,7-(azenometheno)dipyrazolo[3,4-b:5′,1′-g][1]oxa[4,6,8]triazacycloundecine] | 13 | 3.1 | 24.8 | 235 ± 119 | 0.57 ± 0.17 | 2.69 ± 0.83 | 83 ± 27 | – | – | – | – | – | – | – | – | – |
| Cc1c2c(nn1[C@@H]1CCOC3(CC3)C1)OCCCn1nc(Cl)c3cnc(nc31)N2 (single isomer, unassigned) [Example 53, (+)-(R) or (S)-8-Chloro-3-methyl-2-(4-oxaspiro[2.5]octan-7-yl)-2,4,12,13-tetrahydro-11H-5,7-(azenometheno)dipyrazolo[3,4-b:5′,1′-g][1]oxa[4,6,8]triazacycloundecine] | 3.2 | 1.3 | 17.1 | – | – | – | – | 363 ± 138 | 0.65 ± 0.06 | 1.77 ± 0.16 | 203 ± 67 | – | – | – | – | – |
| Cc1c2c(nn1CC1CCOCC1)OCCCn1nc(Cl)c3cnc(nc31)N2 [Example 49, 8-Chloro-3-methyl-2-((tetrahydro-2H-pyran-4-yl)methyl)-2,4,12,13-tetrahydro-11H-5,7-(azenometheno)dipyrazolo[3,4-b:5′,1′-g][1]oxa[4,6,8]triazacycloundecine] | 9.4 | 4.7 | – | – | – | – | – | – | – | – | – | – | – | – | – | – |

Further lines, results first:

| IC50 [1] [nM] | IC50 [2] [nM] | fuplasma (% free) [3] [% free] | concentration at 0.5 h [4, 5] [ng/g] | Kp uu at 0.5 h ([4]; oral gavage 5 mg/kg) | Kp at 0.5 h ([4]; oral gavage 5 mg/kg) | concentration at 0.5 h [4, 6] [ng/mL] | concentration at 1 h [4, 5] [ng/g] | Kp uu at 1 h ([4]; oral gavage 5 mg/kg) | Kp at 1 h ([4]; oral gavage 5 mg/kg) | concentration at 1 h [4, 6] [ng/mL] | concentration at 1 h [4, 7] [ng/g] | Kp at 1 h ([4]; oral gavage 10 mg/kg) | Kp uu at 1 h [4, 8] | concentration at 1 h [4, 9] [ng/mL] | Kp uu at 1 h ([4]; oral gavage 10 mg/kg) | Structure (SMILES) |
| --- | --- | --- | --- | --- | --- | --- | --- | --- | --- | --- | --- | --- | --- | --- | --- | --- |
| 23 | 7.4 | 32.2 | – | – | – | – | – | – | – | – | 744 ± 281 | 2.19 ± 0.25 | 0.29 ± 0.03 | 336 ± 96 | – | Cc1c2c(nn1C1CCOCC1)OCCCn1nc(C(F)(F)F)c3cnc(nc31)N2 [Example 5, 3-Methyl-2-(tetrahydro-2H-pyran-4-yl)-8-(trifluoromethyl)-2,4,12,13-tetrahydro-11H-5,7-(azenometheno)dipyrazolo[3,4-b:5′,1′-g][1]oxa[4,6,8]triazacycloundecine] |
| – | – | 34.3 | – | – | – | – | – | – | – | – | 1460 ± 244 | 1.97 ± 0.27 | 0.44 ± 0.06 | 738 ± 24 | – | Cc1c2c(nn1C1CCOCC1)OCCCn1nc(Br)c3cnc(nc31)N2 [Example 6, 8-Bromo-3-methyl-2-(tetrahydro-2H-pyran-4-yl)-2,4,12,13-tetrahydro-11H-5,7-(azenometheno)dipyrazolo[3,4-b:5′,1′-g][1]oxa[4,6,8]triazacycloundecine] |
| 210 | 63 | 28.7 | – | – | – | – | – | – | – | – | 949 ± 463 | 0.63 ± 0.23 | – | 1550 ± 527 | 0.28 ± 0.1 | Cc1c2c(nn1C1CCOCC1)OCCCn1nc(C3CC3)c3cnc(nc31)N2 [Example 7, 8-Cyclopropyl-3-methyl-2-(tetrahydro-2H-pyran-4-yl)-2,4,12,13-tetrahydro-11H-5,7-(azenometheno)dipyrazolo[3,4-b:5′,1′-g][1]oxa[4,6,8]triazacycloundecine] |
